Source: patent US5543415A, “Antidepressants” (Kyowa Hakko Kogyo Co., Ltd., priority 1992, dated 1996)

test system: ddY-strain male mice; assay: Acute Toxicity Test (minimum lethal dose, oral); type: in vivo; conditions: seven days after administration
Experimental: Test compounds were orally administered to groups of ddY-strain male mice weighing 20±1 g, each group consisting of three mice. Seven days after the administration, minimum lethal dose (MLD) of each compound was determined by observing the mortality.

Structure (SMILES)	MLD (minimum lethal dose) [mg/kg]
CCn1c(=O)c2[nH]c(C(F)=Cc3ccccc3)nc2n(CC)c1=O (stereo in doubt) [Compound 137, (E)-1,3-Diethyl-8-(α-fluorostyryl)xanthine]	> 100
CCn1c(=O)c2c(nc(C(F)=Cc3ccccc3)n2C)n(CC)c1=O (stereo in doubt) [Compound 138, (E)-1,3-Diethyl-8-(α-fluorostyryl)-7-methylxanthine]	> 100
CCCCn1c(=O)c2nc(/C=C/c3cc(OC)c(OC)c(OC)c3)[nH]c2n(CCCC)c1=O [Compound 8, (E)-1,3-Dibutyl-8-(3,4,5-trimethoxystyryl)xanthine]	> 100
CCCCn1c(=O)c2c(nc(/C=C/c3cc(OC)c(OC)c(OC)c3)n2C)n(CCCC)c1=O [Compound 9, (E)-1,3-Dibutyl-7-methyl-8-(3,4,5-trimethoxystyryl)xanthine]	> 300
CCCn1c(=O)c2nc(/C=C/c3cc(OC)c(OC)c(OC)c3)[nH]c2n(CCC)c1=O [Compound 10, (E)-1,3-dipropyl-8-(3,4,5-trimethoxystyryl)xanthine]	> 300
COc1cc(/C=C/c2nc3c(=O)n(C)c(=O)n(C)c3[nH]2)cc(OC)c1OC [Compound 11, (E)-8-(3,4,5-trimethoxystyryl)theophylline]	> 300
C=CCn1c(=O)c2nc(/C=C/c3cc(OC)c(OC)c(OC)c3)[nH]c2n(CC=C)c1=O [Compound 12, (E)-1,3-diallyl-8-(3,4,5-trimethoxystyryl)xanthine]	> 300
CCCn1c(=O)c2[nH]c(/C=C/c3ccc(OC)c(C)c3C)nc2n(CCC)c1=O [Compound 13, (E)-8-(4-Methoxy-2,3-dimethylstyryl)-1,3-dipropylxanthine]	> 300
CCCn1c(=O)c2[nH]c(/C=C/c3ccc(OC)c(C)c3OC)nc2n(CCC)c1=O [Compound 15, (E)-8-(2,4-Dimethoxy-3-methylstyryl)-1,3-dipropylxanthine]	> 100
CCCn1c(=O)c2c(nc(/C=C/c3ccc(OC)c(C)c3OC)n2C)n(CCC)c1=O [Compound 16, (E)-8-(2,4-Dimethoxy-3-methylstyryl)-7-methyl-1,3-dipropylxanthine]	> 300
CCCn1c(=O)c2[nH]c(/C=C/c3ccc4c(c3)OCCO4)nc2n(CCC)c1=O [Compound 17, (E)-8-[2-(1,4-Benzodioxan-6-yl)vinyl]-1,3-dipropylxanthine]	> 300
CCCn1c(=O)c2[nH]c(/C=C/c3ccc4c(c3)OCO4)nc2n(CCC)c1=O [Compound 19, (E)-8-(3,4-Methylenedioxystyryl)-1,3-dipropylxanthine]	> 300
CCCn1c(=O)c2c(nc(/C=C/c3ccc4c(c3)OCO4)n2C)n(CCC)c1=O [Compound 20, (E)-7-Methyl-8-(3,4-methylenedioxystyryl)-1,3-dipropylxanthine]	> 300
CCCn1c(=O)c2nc(/C=C/c3ccc(OC)c(OC)c3OC)[nH]c2n(CCC)c1=O [Compound 21, (E)-1,3-Dipropyl-8-(2,3,4-trimethoxystyryl)xanthine]	> 300
CCCn1c(=O)c2nc(/C=C/c3cc(OC)c(OC)cc3OC)[nH]c2n(CCC)c1=O [Compound 23, (E)-1,3-Dipropyl-8-(2,4,5-trimethoxystyryl)xanthine]	> 300
CCCn1c(=O)c2c(nc(/C=C/c3cc(OC)c(OC)cc3OC)n2C)n(CCC)c1=O [Compound 24, (E)-7-Methyl-1,3-dipropyl-8-(2,4,5-trimethoxystyryl)xanthine]	> 300
CCCn1c(=O)c2[nH]c(/C=C/c3ccc(OC)cc3OC)nc2n(CCC)c1=O [Compound 25, (E)-8-(2,4-Dimethoxystyryl)-1,3-dipropylxanthine]	> 100
CCCn1c(=O)c2c(nc(/C=C/c3ccc(OC)cc3OC)n2C)n(CCC)c1=O [Compound 26, (E)-8-(2,4-Dimethoxystyryl)-7-methyl-1,3-dipropylxanthine]	> 300
CCCn1c(=O)c2[nH]c(/C=C/c3cc(OC)c(OCc4ccccc4)c(OC)c3)nc2n(CCC)c1=O [Compound 27, (E)-8-(4-Benzyloxy-3,5-dimethoxystyryl)-1,3-dipropylxanthine]	> 100
CCCn1c(=O)c2c(nc(/C=C/c3cc(OC)c(OCc4ccccc4)c(OC)c3)n2C)n(CCC)c1=O [Compound 28, (E)-8-(4-Benzyloxy-3,5-dimethoxystyryl)-7-methyl-1,3-dipropylxanthine]	> 100
CCCn1c(=O)c2[nH]c(/C=C/c3cccc(OC)c3OC)nc2n(CCC)c1=O [Compound 29, (E)-8-(2,3-Dimethoxystyryl)-1,3-dipropylxanthine]	> 100
CCCn1c(=O)c2c(nc(/C=C/c3cccc(OC)c3OC)n2C)n(CCC)c1=O [Compound 30, (E)-8-(2,3-Dimethoxystyryl)-7-methyl-1,3-dipropylxanthine]	> 300
CCCn1c(=O)c2[nH]c(/C=C/c3ccc(C)c(C)c3)nc2n(CCC)c1=O [Compound 31, (E)-8-(3,4-Dimethylstyryl)-1,3-dipropylxanthine]	> 100
CCCn1c(=O)c2c(nc(/C=C/c3ccc(C)c(C)c3)n2C)n(CCC)c1=O [Compound 32, (E)-8-(3,4-Dimethylstyryl)-7-methyl-1,3-dipropylxanthine]	> 300
CCCn1c(=O)c2nc(/C=C/c3cc(OC)cc(OC)c3)[nH]c2n(CCC)c1=O [Compound 33, (E)-8-(3,5-Dimethoxystyryl)-1,3-dipropylxanthine]	> 100
CCCn1c(=O)c2c(nc(/C=C/c3cc(OC)cc(OC)c3)n2C)n(CCC)c1=O [Compound 34, (E)-8-(3,5-Dimethoxystyryl)-7-methyl-1,3-dipropylxanthine]	> 300
CCCn1c(=O)c2[nH]c(/C=C/c3cccc([N+](=O)[O-])c3)nc2n(CCC)c1=O [Compound 35, (E)-8-(3-Nitrostyryl)-1,3-dipropylxanthine]	> 100
CCCn1c(=O)c2c(nc(/C=C/c3cccc([N+](=O)[O-])c3)n2C)n(CCC)c1=O [Compound 36, (E)-7-Methyl-8-(3-nitrostyryl)-1,3-dipropylxanthine]	> 100
CCCn1c(=O)c2nc(/C=C/c3cccc(F)c3)[nH]c2n(CCC)c1=O [Compound 37, (E)-8-(3-Fluorostyryl)-1,3-dipropylxanthine]	> 100
CCCn1c(=O)c2c(nc(/C=C/c3cccc(F)c3)n2C)n(CCC)c1=O [Compound 38, (E)-8-(3-Fluorostyryl)-7-methyl-1,3-dipropylxanthine]	> 300
